Literature values, collected in article PMC11785675, “Phase Ib study of the oral PI3Kδ inhibitor linperlisib in patients with advanced solid tumors” (International Journal of Clinical Oncology, 2024).

Key:
patients [1] = conditions: 150 mg twice daily; 12 patients; cited from earlier work
advanced solid tumors [2] = system: advanced solid tumors; parameters: method as in PMID 27672108; conditions: 48 patients with advanced solid tumors, cited from earlier work
[3] = system: advanced or refractory solid tumors; parameters: method as in PMID 27915408; conditions: 10 Japanese patients, cited from earlier work
patients [4] = system: patients; parameters: method as in PMID 27672108; conditions: cited from earlier work
patients [5] = system: patients; parameters: method as in PMID 31619463; conditions: cited from earlier work
[6] = system: thymic epithelial tumors cells carrying mutant PI3K subunits; parameters: method as in PMID 27117832; conditions: in vitro; cited from earlier work
[7] = comparison drugs; no reference given; cited from earlier work
advanced solid tumors [8] = system: advanced solid tumors; parameters: method as in PMID 35288468; conditions: parsaclisib monotherapy; five patients; cited from earlier work
HCC cells = system: HCC cells; parameters: method as in PMID 24919154, PMID 33093155; conditions: cited from earlier work
breast cancer = system: breast cancer; parameters: method as in PMID 24919154, PMID 33093155; conditions: cited from earlier work

CC[C@H](Nc1ncnc2[nH]cnc12)c1nc2cccc(F)c2c(=O)n1-c1ccccc1 [idelalisib]
Grade ≥ 3 TEAE increased ALT (patients [1]): 25% | Grade ≥ 3 TEAE increased AST (patients [1]): 41.7% | Grade ≥ 3 TEAE maculopapular rash (patients [1]): 25% | TEAE increased ALT (patients [1]): 33.3% | TEAE increased AST (patients [1]): 41.7% | TEAE maculopapular rash (patients [1]): 25% | TEAE pyrexia (patients [1]): 50%

COc1c(OCCCN2CCOCC2)ccc2c1N=C(NC(=O)c1cnc(N)nc1)N1CCN=C21 [copanlisib]
Patients achieving stable disease (advanced solid tumors [2]): 15 patients | Patients achieving CR (advanced solid tumors [2]; endometrial carcinoma with PIK3CA and PTEN mutations): one | Patients with PR (advanced solid tumors [2]; metastatic breast cancer): two | 3-month PFS rate ([3]; 95% CI 1–40): 12% | Median PFS ([3]; 95% CI 21–82): 52 days | CR or PR [3]: no patients achieved a CR or PR | DCR [3]: 40.0% | Patients with AEs possibly related to copanlisib (patients [4]; 49 patients): 86% | Drug-related grade 3 AE hyperglycemia (patients [4]): 30% | Drug-related grade 3 AE hypertension (patients [4]): 14% | Drug-related grade 3 AE rash (patients [4]): 7% | TRAE hyperglycemia, all grades (patients [4]): 63% | TRAE hypertension, all grades (patients [4]): 21% | TRAE nausea, all grades (patients [4]): 37% | TEAE fatigue, all grade (patients [5]): 46.0% | TEAE hyperglycemia, grade 3 (patients [5]): 22.2% | TEAE hyperglycemia, grade 4 (patients [5]): 1.6% | TEAE hypertension, all grade (patients [5]): 41.3% | TEAE hypertension, grade 3 (patients [5]): 30.2% | TEAE hypertension, grade 4 (patients [5]): 0 | TEAE hypophosphatemia, grade 3 (patients [5]): 11.1% | TEAE hypophosphatemia, grade 4 (patients [5]): 0 | TEAE lymphocyte count decreased, grade 3 (patients [5]): 7.9% | TEAE lymphocyte count decreased, grade 4 (patients [5]): 4.8%

CS(=O)(=O)N1CCN(Cc2cc3nc(-c4cccc5[nH]ncc45)nc(N4CCOCC4)c3s2)CC1 [GDC-0941]
Antitumor activity [6]: in vitro antitumor activity

C[C@H](Nc1ncnc2[nH]cnc12)c1cc2cccc(Cl)c2c(=O)n1-c1ccccc1 [duvelisib, reference compound]
Route of excretion [7]: predominantly excreted via the intestines

CCOc1c([C@H](C)n2nc(C)c3c(N)ncnc32)cc(Cl)c(F)c1[C@@H]1CNC(=O)C1 [parsaclisib]
CR or PR (advanced solid tumors [8]): none achieved a CR or PR

Fc1ccc2[nH]ccc2c1-c1nc(N2CCOCC2)c2sc(CN3CCN(CC4CC4)CC3)cc2n1 [PI-3065]
Apoptosis of HCC cells (HCC cells): directly induce apoptosis of HCC cells | Growth and metastasis of breast cancer (breast cancer): significantly inhibit growth and metastasis of breast cancer
